Laboratory results published in the NIST ThermoML archive (doi:10.1016/j.fluid.2009.08.017).
Numbers after ± are expanded uncertainties.

Assay: activity coefficient (dimensionless); of the first substance listed, at infinite dilution; xn = mol fraction of the nth substance listed
Conditions: 101 kPa, Liquid, Chromatography, x1 = 0

Q: Which results are given for `C1CCOC1` [tetrahydrofuran] + CCCCCCOCn1cc[n+](C)c1.O=S(=O)([N-]S(=O)(=O)C(F)(F)F)C(F)(F)F?
A: activity coefficient (298.15 K): 0.424 ± 0.035; activity coefficient (308.15 K): 0.438 ± 0.035; activity coefficient (318.15 K): 0.452 ± 0.036; activity coefficient (328.15 K): 0.466 ± 0.036; activity coefficient (338.15 K): 0.479 ± 0.037; activity coefficient (348.15 K): 0.491 ± 0.037; activity coefficient (358.15 K): 0.504 ± 0.038; activity coefficient (368.15 K): 0.515 ± 0.038

Q: Which activity coefficient (298.15 K) does the source give for `C1CCOC1` [tetrahydrofuran] + CCCCCCOCn1cc[n+](COCCCCCC)c1.O=S(=O)([N-]S(=O)(=O)C(F)(F)F)C(F)(F)F here?
A: Its activity coefficient is 0.294 ± 0.031.

Q: And the activity coefficient (308.15 K)?
A: The activity coefficient was 0.304 ± 0.031.

Q: What about the activity coefficient (318.15 K) of the same compound?
A: The activity coefficient was 0.314 ± 0.031.

Q: And the activity coefficient (328.15 K)?
A: Its activity coefficient is 0.324 ± 0.032.

Q: What about the activity coefficient (338.15 K) of the same compound?
A: Its activity coefficient is 0.333 ± 0.032.

Q: What about the activity coefficient (348.15 K) of the same compound?
A: The activity coefficient was 0.343 ± 0.032.

Q: What about the activity coefficient (358.15 K) of the same compound?
A: The activity coefficient was 0.352 ± 0.032.

Q: What about the activity coefficient (368.15 K) of the same compound?
A: The activity coefficient was 0.36 ± 0.033.

Q: With `c1ccsc1` [thiophene] + CCCCCCOCn1cc[n+](C)c1.O=S(=O)([N-]S(=O)(=O)C(F)(F)F)C(F)(F)F as the compound, how does the activity coefficient (298.15 K) read?
A: The activity coefficient was 0.743 ± 0.049.

Q: What about the activity coefficient (308.15 K) of the same compound?
A: The activity coefficient was 0.744 ± 0.049.

Q: What about the activity coefficient (318.15 K) of the same compound?
A: The activity coefficient was 0.744 ± 0.049.

Q: What about the activity coefficient (328.15 K) of the same compound?
A: Its activity coefficient is 0.745 ± 0.049.

Q: What about the activity coefficient (338.15 K) of the same compound?
A: The activity coefficient was 0.746 ± 0.049.

Q: What about the activity coefficient (348.15 K) of the same compound?
A: The activity coefficient was 0.746 ± 0.049.

Q: And the activity coefficient (358.15 K)?
A: Its activity coefficient is 0.747 ± 0.049.

Q: And the activity coefficient (368.15 K)?
A: The activity coefficient was 0.747 ± 0.049.

Q: Which activity coefficient (298.15 K) does the source give for `c1ccsc1` [thiophene] + CCCCCCOCn1cc[n+](COCCCCCC)c1.O=S(=O)([N-]S(=O)(=O)C(F)(F)F)C(F)(F)F here?
A: Its activity coefficient is 0.578 ± 0.041.

Q: And the activity coefficient (308.15 K)?
A: Its activity coefficient is 0.575 ± 0.041.

Q: What about the activity coefficient (318.15 K) of the same compound?
A: Its activity coefficient is 0.571 ± 0.041.

Q: And the activity coefficient (328.15 K)?
A: The activity coefficient was 0.568 ± 0.041.

Q: What about the activity coefficient (338.15 K) of the same compound?
A: Its activity coefficient is 0.565 ± 0.041.

Q: What about the activity coefficient (348.15 K) of the same compound?
A: Its activity coefficient is 0.562 ± 0.04.

Q: What about the activity coefficient (358.15 K) of the same compound?
A: Its activity coefficient is 0.559 ± 0.04.

Q: What about the activity coefficient (368.15 K) of the same compound?
A: The activity coefficient was 0.557 ± 0.04.

Q: For `Cc1ccccc1` [toluene] + CCCCCCOCn1cc[n+](C)c1.O=S(=O)([N-]S(=O)(=O)C(F)(F)F)C(F)(F)F, which activity coefficient (298.15 K) is on record?
A: The activity coefficient was 1.05 ± 0.066.

Q: And the activity coefficient (308.15 K)?
A: Its activity coefficient is 1.06 ± 0.067.

Q: And the activity coefficient (318.15 K)?
A: Its activity coefficient is 1.07 ± 0.068.

Q: And the activity coefficient (328.15 K)?
A: The activity coefficient was 1.08 ± 0.068.

Q: And the activity coefficient (338.15 K)?
A: Its activity coefficient is 1.09 ± 0.069.

Q: What about the activity coefficient (348.15 K) of the same compound?
A: The activity coefficient was 1.1 ± 0.069.

Q: And the activity coefficient (358.15 K)?
A: Its activity coefficient is 1.1 ± 0.07.

Q: What about the activity coefficient (368.15 K) of the same compound?
A: The activity coefficient was 1.11 ± 0.07.

Q: What does the source list for `Cc1ccccc1` [toluene] + CCCCCCOCn1cc[n+](COCCCCCC)c1.O=S(=O)([N-]S(=O)(=O)C(F)(F)F)C(F)(F)F?
A: activity coefficient (308.15 K): 0.743 ± 0.049; activity coefficient (318.15 K): 0.746 ± 0.049; activity coefficient (328.15 K): 0.749 ± 0.049; activity coefficient (338.15 K): 0.753 ± 0.05; activity coefficient (348.15 K): 0.756 ± 0.05; activity coefficient (358.15 K): 0.758 ± 0.05; activity coefficient (368.15 K): 0.761 ± 0.05

Q: With `O` [water] + CCCCCCOCn1cc[n+](C)c1.O=S(=O)([N-]S(=O)(=O)C(F)(F)F)C(F)(F)F as the compound, how does the activity coefficient (298.15 K) read?
A: Its activity coefficient is 4.37 ± 0.3.

Q: And the activity coefficient (308.15 K)?
A: The activity coefficient was 3.81 ± 0.26.

Q: And the activity coefficient (318.15 K)?
A: The activity coefficient was 3.32 ± 0.23.

Q: What about the activity coefficient (328.15 K) of the same compound?
A: Its activity coefficient is 2.9 ± 0.2.

Q: And the activity coefficient (338.15 K)?
A: The activity coefficient was 2.57 ± 0.17.

Q: And the activity coefficient (348.15 K)?
A: The activity coefficient was 2.28 ± 0.16.

Q: And the activity coefficient (358.15 K)?
A: Its activity coefficient is 2.04 ± 0.14.

Q: Which activity coefficient (298.15 K) does the source give for `O` [water] + CCCCCCOCn1cc[n+](COCCCCCC)c1.O=S(=O)([N-]S(=O)(=O)C(F)(F)F)C(F)(F)F here?
A: The activity coefficient was 4.43 ± 0.3.

Q: And the activity coefficient (308.15 K)?
A: The activity coefficient was 3.8 ± 0.26.

Q: And the activity coefficient (318.15 K)?
A: The activity coefficient was 3.31 ± 0.23.

Q: What about the activity coefficient (328.15 K) of the same compound?
A: The activity coefficient was 2.93 ± 0.2.

Q: What about the activity coefficient (338.15 K) of the same compound?
A: Its activity coefficient is 2.53 ± 0.17.

Q: And the activity coefficient (348.15 K)?
A: The activity coefficient was 2.24 ± 0.15.

Q: And the activity coefficient (358.15 K)?
A: The activity coefficient was 2.02 ± 0.14.

Q: What about the activity coefficient (368.15 K) of the same compound?
A: Its activity coefficient is 1.83 ± 0.12.
